{"source": "patent EP1557429A1", "about": "“Site-directed coupling of proteins” (Vectron Therapeutics AG, priority 2004, dated 2005)", "test_system": "A431 cells", "assay": "Binding of FITC-labeled EGFm1 to A431 cells, flow cytometry", "type": "cell-based", "procedure": "• Fig. 1: Schematic representation of the strategy to isolate side-chain deaminated ligands (A) or side-chain decarboxylated ligands (B). Randomization in approach A is performed by using sets of amino acids (X) devoid of lysines or lysines and arginines. Randomization in approach B is performed by using sets of amino acids (X) devoid of aspartic acids (Asp) and glutamic acids (Glu). • Fig. 2: Schematic representation of the strategy of side-chain elimination/addition (A) or side-chain group reduction (B), both examplified for elimination or reduction of cysteine residues. In these examples randomization is performed by using sets of amino acids (X) devoid of cysteines (Cys). Both approaches can be applied equally for any other amino acid residues. • Fig. 3: Amino acid sequences of EGF of various species. The positions of lysine and arginine residues is highlighted by grey boxes. • Fig. 4: (A) IMAC purification of recombinant HisEGFm1 from bacterial periplasm. Eluted fractions were analyzed on a 20% SDS-Tricine gel (HisEGFm1 is indicated by an arrowhead). Recombinant human EGF was included as control. (B) Size exclusion chromatography of purified EGFwt and HisEGFm1 on a superose 12 column. The positions of BSA (67 kDa), Ovalbumin (43 kDa) and Myoglobin (17 kDa) are indicated by arrows. (C) Competition of binding of fdEGF to A431 by EGFwt or HisEGFm1. • Fig. 5: Binding of FITC-labeled EGFm1 to A431. A) FITC-labeled HisEGFm1 was incubated with A431 at varying concentrations and binding was analyzed by flow cytometry (0, cells without EGFm1; 1, 17 ng/ml; 2 50 ng/ml; 3, 170 ng/ml). B) Competition of FITC-labeled EGFm1 at 170 ng/ml without (1) or with (2) excess amounts of unlabelled EGFwt. C) Control experiments with BSA. • Fig. 6: (A) Binding of EGFm1 liposomes to A431 cells.\nEGFwt or EGFm1 (50 µg) were diluted to a conc. of 500 µg/ml and the pH was adjusted to 9.0 with carbonate buffer pH 9.5. FITC was added at a 10-fold molar excess and incubated overnight at 4°C. […] Fluorescence intensity was determined using a fluorescence spectrophotometer (Victor^2; Wallac, Freiburg, Germany). […]", "data": [{"substance": "Fluorescein-labeled EGFm1: EGFm1 labeled with fluorescein-isothiocyanate at the N-terminal amino group (NSDSECPLSHDGYCLHDGVCMYIEALDQYACNCVVGYIGERCQYSDLSWWELS; not fully specified; left off: small tags and cut ends)", "values": [{"measurement": "competition of binding to A431", "setting": "excess amounts of unlabeled EGFwt, BSA as control", "result": "could be competed with excess amounts of unlabeled EGFwt but not with BSA"}, {"measurement": "binding to A431 reached saturation at", "setting": "fluorescein-labeled protein, flow cytometry", "result": "approximately 50 ng/ml"}, {"measurement": "binding to A431 cells", "setting": "fluorescein-labeled protein, varying concentrations", "result": "strong and concentration-dependent binding"}]}]}
